Assay results: patent US9981972B2, “N-hydroxy bicyclic hydantoin carbamates as tools for identification of serine hydrolase targets” (ABIDE THERAPEUTICS, INC., priority 2014, dated 2018)

Assays:
[1] = tested on: SH anti-targets in HeLa cells; assay: Gel-based competitive ABPP in situ, cultured HeLa cells, anti-targets; format: cell-based, human; conditions: 2 h, any compound concentration, ABHD6 not visible
Experimental: (§1) Assay Overview: The purpose of this assay was to determine IC50 values of powder samples of test compounds for enzyme of interest activity in situ using a gel-based competitive ABPP assay. In this assay, cultured cells were treated with test compound, harvested, and lysed. The isolated soluble proteome fraction was reacted with FP-Rh and analyzed by SDS-PAGE as described above.
Protocol Summary: To cultured HeLa cells (90% confluent) was added fresh DMEM (5 mL total volume; supplemented with 10% FCS) pre-mixed with DMSO or test compound. After 2 hours at 37° C., cells were harvested by scraping, washed twice with 10 mL DPBS, and homogenized by sonication in DPBS. The soluble fraction was isolated by centrifugation (100K×g, 45 minutes) and the protein concentration was adjusted to 1 mg/mL with DPBS. FP-Rh (1 μL of 50× stock in DMSO) was added to a final concentration of 2 μM in 50 μL total reaction volume. […] The percentage activity remaining was determined by measuring the integrated optical density of the enzymes of interest, and anti-target bands relative to a DMSO-only (no compound) control. […]
Compound 1 is active in situ against the LYPLA enzymes (see FIG. 3A) as assessed by gel-based competitive ABPP with FP-Rh following two hours of compound treatment of HeLa cells cultured in serum-supplemented medium.

human LYPLA2 = target: T1, human LYPLA2 (Homo sapiens, UniProt O95372); assay: IC50 by gel-based competitive ABPP in situ, cultured HeLa cells; format: cell-based; conditions: 2 h, serum-supplemented medium
T1 construct: endogenous human LYPLA1/2 in a HeLa soluble proteome; endogenous in cells; host or cells: HeLa (soluble proteome in vitro; cultured cells in situ)
Experimental: as §1
(§2) Protocol Summary: To cultured HeLa cells (90% confluent) was added fresh DMEM (5 mL total volume; supplemented with 10% FCS) pre-mixed with DMSO or test compound. After 2 hours at 37° C., cells were harvested by scraping, washed twice with 10 mL DPBS, and homogenized by sonication in DPBS. The soluble fraction was isolated by centrifugation (100K×g, 45 minutes) and the protein concentration was adjusted to 1 mg/mL with DPBS. FP-Rh (1 μL of 50× stock in DMSO) was added to a final concentration of 2 μM in 50 μL total reaction volume. The reaction was incubated for 30 minutes at 25° C., quenched with 16 μL 4×SDS-PAGE loading buffer (reducing), separated by SDS-PAGE and visualized by in-gel fluorescent scanning. The percentage activity remaining was determined by measuring the integrated optical density of the enzymes of interest, and anti-target bands relative to a DMSO-only (no compound) control. […]

human LYPLA1 = target: T2, human LYPLA1 (Homo sapiens, UniProt O75608); assay: as above; format: cell-based; conditions: 2 h, serum-supplemented medium
T2 construct: endogenous human LYPLA1/2 in a HeLa soluble proteome; endogenous in cells; host or cells: HeLa (soluble proteome in vitro; cultured cells in situ)
Experimental: as §1, §2

LYPLA1/2 = assay: Gel filtration to assess mode of action, HeLa cell lysate; format: biochemical, human; conditions: 200 nM or 1000 nM, FP-Rh labeling before and after gel filtration
Experimental: In this assay, a complex proteome was incubated with test compound and a fraction of the assay mixture was passaged over a Sephadex G-25M column before reaction with FP-Rh and SDS-PAGE analysis as described above.
Protocol Summary: HeLa cell lysate (1 mL of 1 mg/ml in DPBS) was treated with test compound (200 nM or 1000 nM, from 50× stock in DMSO) or DMSO only (no compound control). Test compounds were incubated for 30 minutes at 37° C. An aliquot (50 μL) was removed from each reaction, and the remaining sample was passaged over a Sephadex G-25M desalting column. An aliquot (50 μL, 1 mg/mL protein, eluted in DPBS) was removed, and pre- and post-filtration aliquots were reacted with FP-Rh (50× stock in DMSO; 2 μM final concentration). The reaction was incubated for 30 minutes at 25° C., quenched with 16 μL 4× SDS-PAGE loading buffer (reducing), separated by SDS-PAGE and visualized by in-gel fluorescent scanning. The percentage activity remaining was determined by measuring the integrated optical density of the LYPLA1/2 bands (quantified together) relative to a DMSO-only (no compound) control. The percent recovery was calculated by comparing percent inhibition before and after gel filtration for each test compound concentration.

ABHD4 = target: T3, ABHD4 (Mus musculus, UniProt Q8VD66); assay: Inhibition by gel-based competitive ABPP in vivo; conditions: 1-40 mg/kg i.p., 4 h, any tissue examined
T3 construct: from tissue; host or cells: tissues of C57BL6 mice
Experimental: Compound 26, Compound 34, and Compound 1 were administered across a dose range of 1-40 mg/kg to C57BL6 mice by intraperitoneal injection, and, after 4 hours, animals were sacrificed and tissues harvested for analysis by gel-based ABPP using the FP-Rh probe and the Compound 39 probe.

T1 sequence (O95372 whole entry): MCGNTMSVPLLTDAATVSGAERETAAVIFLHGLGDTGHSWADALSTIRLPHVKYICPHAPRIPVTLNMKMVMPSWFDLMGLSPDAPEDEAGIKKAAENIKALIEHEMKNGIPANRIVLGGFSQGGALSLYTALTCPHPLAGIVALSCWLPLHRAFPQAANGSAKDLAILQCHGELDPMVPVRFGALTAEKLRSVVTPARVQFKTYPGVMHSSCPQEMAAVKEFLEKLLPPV
T3 sequence (Q8VD66 whole entry): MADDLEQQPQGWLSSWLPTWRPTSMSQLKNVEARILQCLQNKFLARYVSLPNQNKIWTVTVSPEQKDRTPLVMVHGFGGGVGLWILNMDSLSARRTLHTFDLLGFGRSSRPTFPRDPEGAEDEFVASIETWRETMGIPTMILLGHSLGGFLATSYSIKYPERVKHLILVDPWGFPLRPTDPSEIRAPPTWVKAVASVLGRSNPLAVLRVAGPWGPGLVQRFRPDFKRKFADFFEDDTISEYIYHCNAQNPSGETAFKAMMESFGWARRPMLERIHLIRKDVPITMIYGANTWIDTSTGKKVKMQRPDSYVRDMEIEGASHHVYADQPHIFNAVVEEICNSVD
T2 sequence (O75608 whole entry): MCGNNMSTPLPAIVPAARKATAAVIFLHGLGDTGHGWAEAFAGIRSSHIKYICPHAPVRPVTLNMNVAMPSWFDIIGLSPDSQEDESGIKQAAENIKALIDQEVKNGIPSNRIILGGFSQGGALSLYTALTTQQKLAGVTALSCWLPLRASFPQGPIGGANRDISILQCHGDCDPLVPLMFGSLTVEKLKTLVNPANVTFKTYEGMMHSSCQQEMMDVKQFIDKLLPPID

| SMILES | anti-target inhibition in situ [1] | IC50 (human LYPLA2) | IC50 (human LYPLA1) | binding mode (gel filtration) (LYPLA1/2) | blockade of ABHD4 in vivo (ABHD4) |
| --- | --- | --- | --- | --- | --- |
| O=C(ON1C(=O)C2CN(C(=O)N3CCOCC3)CCN2C1=O)N1CCC(CCc2ccc(Cl)cc2)CC1 (centres unmarked) [Compound 1, 7-(morpholine-4-carbonyl)-1,3-dioxohexahydroimidazo[1,5-a]pyrazin-2(3H)-yl 4-(4-chloro-phenethyl)piperidine-1-carboxylate] | No anti-target inhibition | 143 nM | 87 nM | irreversible inhibitor | – |
| O=C(ON1C(=O)C2CN(Cc3ccc(Oc4ccccc4)cc3)CCN2C1=O)N1CCOCC1 (centres unmarked) [Compound 34, 1,3-dioxo-7-(4-phenoxybenzyl)hexahydroimidazo[1,5-a]pyrazin-2(3H)-yl morpholine-4-carboxylate] | – | – | – | – | did not block the activity of ABHD4 in any tissue examined |
